The subject of this experiment is cultured cortical neurons at DIV 14. The experiment is described as follows: NMDA excitotoxicity test, neuronal survival by MTT. The conditions noted are these: for neuronal survival: 5 µM inhibitor + 100 µM NMDA + 10 µM glycine; for % of survival, Mean: compound 5µM with NMDA 100µM, MTT A(540 nm) normalized to control (100) and NMDA alone (0). It is filed as cell-based, mouse. The text has this: We first investigated whether OptoNAM-3 could be used in the context of a patho-physiological process related to GluN1/GluN2B receptors. Overactivation of NMDARs induced by tonic exposure to glutamate or NMDA is well-known to trigger neuronal death.[6] GluN1/GluN2B receptors are thought to be the major player of this neurotoxicity, and GluN1/GluN2B antagonists have proven to be potent neuroprotectants in vitro and in vivo.[5],[15] To test the neuroprotective activity of OptoNAM-3 and its photodependence of action, we performed a protocol of excitotoxicity based on exposure to NMDA (100 μM) of cultured cortical neurons at DIV 14,[15] in the presence of OptoNAM-3. […] OptoNAM-3 in the dark, at a concentration of 5 μM, induced, like ifenprodil, an ∼50% increase in cell survival (Figure S4). […] OptoNAM-3 is therefore able to promote cell survival in neuron cultures in a photodependent manner.
Mice were housed in the IBENS rodent central facility duly accredited by the French Ministry of Agriculture. All experiments were performed in compliance with French and European regulations on care and protection of laboratory animals (EU Directive 2010/63, French Law 2013–118, February 6, 2013), and were approved by local ethics committees and by the French Ministry of Research and Innovation (authorization numbers #05137.02, APAFIS #28867-2020121814485893). Dissociated cultures of cortical neurons were prepared from mouse embryos at E18 as described previously.[84] After removing meninges, cortices were placed in ice-cold HBSS solution. Cell dissociation was performed individually for cortices of each embryo. Cortices were incubated in 2.5% trypsin at 37 °C for 7 min, rinsed three times with 37 °C phosphate buffer saline, and finally suspended in plating medium (Neurobasal Medium, supplemented with 0.5 mM L-glutamine, 1% B27 supplement, and penicillin/streptomycin). The neurons were further dissociated by trituration, and cells were plated on poly-D-lysine coated coverslips in 24-well culture dishes at a density of 3 × 10^5 cells per well for the excitotoxicity test and that of 1 × 10^5 cells per well for patch clamp experiments. Cultures were incubated at 37 °C in a humidified atmosphere of 5% CO2. Cells were fed by changing 1/2 medium to fresh Neurobasal medium every 4 days. For the excitotoxicity experiments, after 5 days in vitro, growth of non-neuronal cells was halted by a 24 h exposure to FDX ([…] 5-fluoro-2′-deoxyuridine). The cultures were used for experiments after 6 to 14 days in vitro (DIV6–8 for patch clamp experiments and DIV14 for excitotoxicity tests).
Excitotoxicity tests were performed 14 days after the culturing step as described in ref[15]. Just before the experiments, the neuronal medium was changed and the neurons incubated in the external patch recording solution (see above). Two replicates of 24 well plates containing cultured cortical neurons were exposed to the same 4 conditions, in which the following compounds were added to the medium: (1) glycine (10 μM) alone (control); (2) glycine (10 μM) + NMDA (100 μM); (3) glycine (10 μM) + NMDA (100 μM) + 5 μM ifenprodil; and (4) glycine (10 μM) + NMDA (100 μM) + 5 μM trans-OptoNAM-3 (dark). One of the two plates was exposed to UV light (Jena analytic US, UVP Hand-held UV lamp UVGL-58, power ∼1 mW) for 2 min. The two plates were then put back in the 37 °C incubator for 10 min. Agonist exposure was terminated by washing out the exposure solution with conditioned Neurobasal medium, prior to returning the dishes to the incubator for 24 h before assessment of neuronal death.
Overall neuronal cell death was determined 24 h after NMDA exposure by the MTT test. Mitochondrial and cytosolic dehydrogenases of living cells reduce the yellow tetrazolium salt (MTT) to produce a purple formazan dye that can be detected spectrophotometrically.[85] […]

`c1ccc(/N=N/c2ccc(CCNc3ccncc3)cc2)cc1` [OptoNAM-3, (E)-N-(4-(Phenyldiazenyl)phenethyl)pyridin-4-amine]: the neuronal survival runs as follows: (2 min UV (365 nm), normalized to control and NMDA) 35%; (dark, normalized to control (100%) and NMDA (0%)) 50%. Besides, the “% of survival, Mean” value worked out at 48.677% (Dark) and 36.192% (UV).

These data come from paper PMC11413854, “Reversible Control of Native GluN2B-Containing NMDA Receptors with Visible Light” (ACS Chemical Neuroscience, 2024).
